According to patent US20220133747A1, “ESTROGEN RECEPTOR INHIBITORS AND USES THEROF” (The Regents of the University of California, priority 2018, published 2022):
“Also recorded” adds a separate entry of the source. Where two headings read alike, the source gives them in different places.

Legend:
4T1 tumors = assay: 4T1 tumor progression in syngeneic BALB/c mice; format: in vivo; conditions: SERD128 50 mg/kg oral gavage, fulvestrant 5 mg/mouse subcutaneous once a week, anti-PD-L1 100 μg every third day, 10-12 days
Protocol: Ovariec-tomized 6-wk-old female BALC/c mice supplemented with E2 pellets (0.36 mg/60 day release pellet) were implanted SC with 2.5×10^5 4T1 cells. After tumors reached approx. 200 mm3, mice were randomized and treated with control vehicle (CON), 100 μg of anti-PD-L1 (antibody clone 10F.9G2, BioXCell) Q3 days (PD-L1), 50 mg/kg SERD128 by oral gavage (SERD128) or combined antibody+SERD (PD-L1+SERD128). Tumors were measured Q3 days, with tumor volume calculated as V=(W(2)×L)/2), with mean+SE (*P<0.05, **P<0.01 vs CON).
FIGS. 23A-23C show estrogen effects on ERα negative tumor growth in vitro and in vivo. […] Female 6-wk-old BALB/c mice, either ovariectomized (ovx) or sham-operated (intact), were inoculated s.c. with 2×10^5 4T1 TNBC cells. Tumor growth was then assessed every 3 days, with tumor volume calculated as V=(l×w×w)/2. ****P≤0.0001. […] 4T1 cells were grown in the presence (+E2) or absence (−E2) of estradiol-17β and increasing concentrations of SERD128 at 10 nM (128-10), 100 nM (128-100) or 1000 nM (128-1000). Cell proliferation was assessed using the Incucyte S3 Live-Cell Analysis system with pictures obtained every 4-6 hours. […] Ovariectomized 6-week-old female syngeneic BALB/c mice were primed with estradiol-17β slow-release pellets prior to tumor cell inoculation. After three days, 4T1 cells were injected in the 4th mammary fat pad (2×10^5 cells). After tumors reached ˜200 mm^3 mice were randomized and treated with control vehicle (CON), […] of anti-PD-L1 antibody every 3rd day (PD-L1 Ab), 50 mg/kg SERD128 via oral gavage (SERD128), and combinations of antibody and SERD128 (SERD128+PD-L1 Ab). Tumors were measured every 3 days, and tumor volume was calculated as V=(W(2)×L)/2). **P<0,01, ****P<0.0001 as compared to control group. n=11-12.
In further studies to determine the effects of antiestrogen treatment alone or in combination with anti-PD-L1 antibody on murine tumor progression in vivo, ovariectomized 6-week-old female syngeneic BALB/c mice were used (Jackson Laboratory). […] Tumors were measured every 3-4 days, and tumor volume was calculated as above. […]

[1] = test system: immune cell subsets in 4T1 tumors; assay: Mass cytometry (CyTOF) of immune cell subsets in 4T1 tumors; format: in vivo, BALB/c mice
Protocol: Single cell suspensions were prepared from 4T1 tumors grown in BALC/c mice treated for 12 days with control (CON), 100 μg of anti-PD-L1 antibody Q3 days (PD-L1), 50 mg/kg SERD128 via oral gavage (SERD128) or combined (PD-L1+SERD128). Cells were labeled with specific antibodies and analyzed by mass cytometry (cyTOF).
Cells were labeled with specific antibodies and analyzed by mass cytometry (CyTOF).
Tumors from each mouse were harvested after 10-12 days of treatment as described above. Single cell suspensions were generated from tumors using the MACS mouse tumor dissociation kit (Miltenyi Biotech Cat. 130-096-730) following manufacturer's instructions. One million cells per tumor were resuspended in PBS and labeled with Cell-ID Cisplatin (Fluidigm, Cat. 201064) to assess for live/dead cells. For antibody labeling, we used the recommended cell surface staining procedure (Fluidigm) followed by the FoxP3/Transcription Staining Buffer Set protocol (eBiosciences™). Cells were labeled with a panel of 28 metal-conjugated antibodies to determine different immune lineages in addition to memory, trafficking, activation, and exhaustion markers (see Tables 2-3 for list of antibodies). After washing and centrifugation, cells were fixed using MaxPar Fix and Perm buffer (Fluidigm, Cat. 201067) and labelled for single cell discrimination with Cell-ID Intercalator-Ir (Fluidigm, Cat. 201192A). Samples were resuspended with 10% EQ four-element calibration beads (Fluidigm, Cat. 201078), and filtered through a 40 μm mesh filter prior to acquisition on a HELIOS' mass cytometer (Fluidigm), at a rate of 300-500 events/s.
Collected mass cytometry data was analyzed as previously described. Briefly, samples were normalized utilizing a bead standard. First, each cytometry file was processed in FLOWJO (v10.3), then manually gated for stability of signal over time, followed by exclusion of normalization beads, ratio of DNA intercalators (191Ir+vs 193Ir+), with finally single cell events (Ir193 vs event length) (FIG. 24A). After that, viable (195Pt−)CD45+ events were exported and uploaded into the X-shift (VorteX) clustering environment to obtain the k-nearest-neighbor density estimation as described before. Dimensionality reduction of unclustered data was performed using the t-stochastic neighborhood embedding (t-SNE) and PhenoGraph algorithms implemented in the Cytofkit library, supplied by BIOCONDUCTOR v.3.4 and run in RSTUDIO v.1.1.463. A fixed number of 10,000 cells were sampled without replacement from each file and combined for analysis. Resulting t-SNE plots were subsequently filtered by marker expression to visualize differences between different treatment groups. Heatmaps were generated using Z-scores based on median marker expression (excel and Prism v7).

| SMILES | 4T1 tumor progression (tumor volume) (4T1 tumors; 50 mg/kg) | 4T1 tumor progression (tumor volume) (4T1 tumors; listed as S128) | B regulatory cells (CD19+ CD25+ CD69+, gated on CD19+) [1] | M1 macrophages (MHCII high) [1] | M2 macrophages (MHCII low) [1] | markers of CD8+ TIL activation and/or proliferation [1] | stimulatory/myeloid dendritic cells (mDCs) [1] | total dendritic cells (CD11c+MHCII+) [1] | markers of CD8+ TIL activation and/or proliferation ([1]; listed as S128) | 4T1 tumor progression (tumor volume) (4T1 tumors) |
| --- | --- | --- | --- | --- | --- | --- | --- | --- | --- | --- |
| C[C@]12C[C@H](Oc3ccc(N)c(C(F)(F)F)c3)[C@@H]3c4ccc(O)cc4CC[C@H]3[C@@H]1CC[C@@H]2O [SERD128, (8S,9S,11S,13S,14S,17S)-11-(4-Amino-3-(trifluoromethyl)phenoxy)-13-methyl-7,8,9,11,12,13,14,15,16,17-decahydro-6H-cyclopenta[a]phenanthrene-3,17-diol] | inhibits breast cancer growth in vivo; also recorded: effective in inhibition of 4T1 tumor growth in vivo; also recorded: significant suppression of 4T1 tumor progression in vivo | elicits inhibition of 4T1 TNBC progression in vivo | decreases expression of B regulatory cells; also recorded: decrease expression of this subpopulation | increase in the M1 tumoricidal population of macrophages; also recorded: increases the ER+M1-tumoricidal subset of macrophages | notable decrease in the M2 phenotype; also recorded: reduces the M2-phenotype | promotes enhanced proliferation and activation of CD8^+ T-cells | increase expression of total dendritic cells (DC) and their stimulatory/myeloid subgroup; also recorded: increased population of mDCs | increase expression of total dendritic cells; also recorded: increased population of mDCs in 4T1 tumors as well as the total population of DCs | increased | – |
| C[C@]12CC[C@@H]3c4ccc(O)cc4C[C@@H](CCCCCCCCC[S+]([O-])CCCC(F)(F)C(F)(F)F)[C@H]3[C@@H]1CC[C@@H]2O (some centres unmarked) [fulvestrant, reference compound] | – | – | – | – | – | – | – | increased the population of DCs in 4T1 tumors | – | effective in inhibition of 4T1 tumor growth in vivo |
